{"source": "patent US20210215714A1", "about": "“COMPLEMENT ALTERNATIVE PATHWAY-ASSOCIATED NEPHROPATHY BIOMARKERS” (Achillion Pharmaceuticals, Inc., priority 2018, published 2021);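 as to ACR: urine samples from C3G or IC-MPGN patients read by central lab dipstick on automated urine chemistry analyzer, ratio computed from albumin and creatinine pad absorbance, healthy volunteer urine as control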", "key": {"C3": {"test_system": "C3", "test": "Phase 2a study: C3 levels in serum", "assay_type": "in vivo, human", "conditions": "14-day treatment, patients A-F", "protocol": "(§1) Systemic complement proteins were measured in serum and plasma including serum Ba, plasma Bb, serum C3, serum Factor D, serum C4, and % Fragment C3.\nC3 levels in serum were measured using a quantitative sandwich enzyme immunoassay technique. A monoclonal antibody specific for human C3 was pre-coated onto a micro-assay plate. Standards and samples were pipetted into the wells and any C3 present was bound by the immobilized antibody. After washing away any unbound substances, an enzyme-linked polyclonal antibody specific for human C3 was added to the wells. Following a wash to remove any unbound antibody-enzyme reagent, a substrate solution was added to the wells and color develops in proportion to the amount of C3 bound in the initial step. The color development was stopped and the intensity of the color was measured. […] Patients E and F show similar results."}, "AP activity [1]": {"test_system": "AP activity", "test": "rabbit erythrocyte hemolysis (AP activity in vitro)", "assay_type": "cell-based", "conditions": "Oryctolagus cuniculus"}, "AP activity [2]": {"test_system": "AP activity", "test": "Wieslab assay (AP activity in vitro)", "assay_type": "biochemical"}, "Factor D": {"test_system": "Factor D", "test": "Phase 2a study: Factor D levels in serum", "assay_type": "in vivo, human", "conditions": "14-day treatment, patients A-F", "protocol": "as §1\n(§2) Factor D levels in serum were measured using a quantitative sandwich enzyme immunoassay technique. A monoclonal antibody specific for human Complement Factor D was pre-coated onto a micro-assay plate. Standards and samples were pipetted into the wells and any Complement Factor D present was bound by the immobilized antibody. After washing away any unbound substances, an enzyme-linked polyclonal antibody specific for human Complement Factor D was added to the wells. Following a wash to remove any unbound antibody-enzyme reagent, a substrate solution was added to the wells and color develops in proportion to the amount of Complement Factor D bound in the initial step. The color development was stopped and the intensity of the color was measured spectrophotometrically at 450 nm."}, "AP activity [3]": {"test_system": "AP activity", "test": "PNH erythrocyte hemolysis (AP activity in vitro)", "assay_type": "cell-based"}, "C4": {"test_system": "C4", "test": "Phase 2a study: C4 levels in serum", "assay_type": "in vivo, human", "conditions": "14-day treatment, patients A-F", "protocol": "as §1\nas §2, with “C4” for “Factor D”, “C4” for “Complement Factor D”"}, "[4]": {"test": "Phase 2a study in C3G / IC-MPGN patients: urine albumin-to-creatinine ratio (ACR)", "excerpt": "10 patients with either C3 Glomerulopathy (C3G) or Immune-Complex Membranoproliferative Glomerulonephritis (IC-MPGN) are to be enrolled across two dose groups. […] Inclusion criteria include a clinical diagnosis of C3G (C3 glomerulonephritis [C3GN] or dense deposit disease [DDD], the 2 types of C3G) or idiopathic immune-complex membranoproliferative glomerulonephritis (IC-MPGN) by renal biopsy for at least 3 months prior to dosing, with the pathologic diagnosis verified by review of the renal biopsy by the study central pathologist. Patients must have low C3 levels (<50% of the lower limit of normal) and normal or near-normal C4 levels (>90% of the lower limit of normal). Group 1 has enrolled 2 out of 2 planned patients and Group 2 has enrolled 4 out of 8 planned patients.\nAlbumin and creatinine levels were measured in urine samples by a central reference lab using a urine dipstick method. Urine from non-study healthy volunteers served as control samples. An automatic urinary chemical analyzer was used with a dye for the detection of albumin at >8 mg/dL. Also present on the dipstick was a pad for detection of creatinine that uses the peroxidase activity of the copper-creatinine complex. The ACR ratio was automatically calculated by the analyzer based on the light absorbent readings of the albumin and creatinine test pads."}}, "data": [{"smiles": "CC(=O)c1nn(CC(=O)N2C[C@H](F)C[C@H]2C(=O)Nc2cccc(Br)n2)c2ccc(-c3cnc(C)nc3)cc12", "note": "[Compound 1, (2S,4R)-1-(2-(3-acetyl-5-(2-methylpyrimidin-5-yl)-1H-indazol-1-yl)acetyl)-N-(6-bromopyridin-2-yl)-4-fluoropyrrolidine-2-carboxamide]", "values": [{"measurement": "Serum C3", "setting": "C3", "value": "increased"}, {"measurement": "IC50", "setting": "AP activity [1]", "value": 27, "unit": "nM"}, {"measurement": "IC50", "setting": "AP activity [2]", "value": 26, "unit": "nM"}, {"measurement": "Serum Factor D", "setting": "Factor D", "value": "remained unchanged"}, {"measurement": "IC50", "setting": "AP activity [3]", "value": 14, "unit": "nM"}, {"measurement": "Serum C4", "setting": "C4", "value": "remained unchanged"}, {"measurement": "ACR", "setting": "[4]; Patient A, 100 mg TID, Day 1/0 Hour", "value": 259, "unit": "mg/mmol"}, {"measurement": "ACR", "setting": "[4]; Patient A, 100 mg TID, Day 4", "value": 218, "unit": "mg/mmol"}, {"measurement": "ACR", "setting": "[4]; Patient A, 100 mg TID, Day 7/0 Hour", "value": 233, "unit": "mg/mmol"}, {"measurement": "ACR", "setting": "[4]; Patient A, 100 mg TID, Day 10", "value": 228, "unit": "mg/mmol"}, {"measurement": "ACR", "setting": "[4]; Patient A, 100 mg TID, Day 14", "value": 175, "unit": "mg/mmol"}, {"measurement": "ACR", "setting": "[4]; Patient A, 100 mg TID, Day 15 Taper", "value": 144, "unit": "mg/mmol"}, {"measurement": "ACR", "setting": "[4]; Patient A, 100 mg TID, Day 16 Taper", "value": 143, "unit": "mg/mmol"}, {"measurement": "ACR", "setting": "[4]; Patient A, 100 mg TID, Day 17 Taper", "value": 115, "unit": "mg/mmol"}, {"measurement": "ACR", "setting": "[4]; Patient A, 100 mg TID, Day 21 Taper", "value": 140, "unit": "mg/mmol"}, {"measurement": "ACR", "setting": "[4]; Patient A, 100 mg TID, Follow-Up Day 24", "value": 138, "unit": "mg/mmol"}, {"measurement": "ACR", "setting": "[4]; Patient A, 100 mg TID, Follow-Up Day 28", "value": 132, "unit": "mg/mmol"}, {"measurement": "ACR", "setting": "[4]; Patient A, 100 mg TID, Follow-Up Day 35", "value": 160, "unit": "mg/mmol"}, {"measurement": "ACR", "setting": "[4]; Patient A, 100 mg TID, Follow-Up Day 49", "value": 147, "unit": "mg/mmol"}, {"measurement": "ACR", "setting": "[4]; Patient A, 100 mg TID, Screen", "value": 228, "unit": "mg/mmol"}, {"measurement": "ACR", "setting": "[4]; Patient B, 100 mg TID, Day 1/0 Hour", "value": 580, "unit": "mg/mmol"}, {"measurement": "ACR", "setting": "[4]; Patient B, 100 mg TID, Day 4", "value": 264, "unit": "mg/mmol"}, {"measurement": "ACR", "setting": "[4]; Patient B, 100 mg TID, Day 7/0 Hour", "value": 249, "unit": "mg/mmol"}, {"measurement": "ACR", "setting": "[4]; Patient B, 100 mg TID, Day 10", "value": 253, "unit": "mg/mmol"}, {"measurement": "ACR", "setting": "[4]; Patient B, 100 mg TID, Day 14", "value": 343, "unit": "mg/mmol"}, {"measurement": "ACR", "setting": "[4]; Patient B, 100 mg TID, Day 15 Taper", "value": 325, "unit": "mg/mmol"}, {"measurement": "ACR", "setting": "[4]; Patient B, 100 mg TID, Day 16 Taper", "value": 329, "unit": "mg/mmol"}, {"measurement": "ACR", "setting": "[4]; Patient B, 100 mg TID, Day 17 Taper", "value": 263, "unit": "mg/mmol"}, {"measurement": "ACR", "setting": "[4]; Patient B, 100 mg TID, Day 21 Taper", "value": 373, "unit": "mg/mmol"}, {"measurement": "ACR", "setting": "[4]; Patient B, 100 mg TID, Follow-Up Day 24", "value": 469, "unit": "mg/mmol"}, {"measurement": "ACR", "setting": "[4]; Patient B, 100 mg TID, Follow-Up Day 28", "value": 381, "unit": "mg/mmol"}, {"measurement": "ACR", "setting": "[4]; Patient B, 100 mg TID, Follow-Up Day 49", "value": 140, "unit": "mg/mmol"}, {"measurement": "ACR", "setting": "[4]; Patient B, 100 mg TID, Screen", "value": 486, "unit": "mg/mmol"}, {"measurement": "ACR", "setting": "[4]; Patient C, 200 mg TID, Day 1/0 Hour", "value": 58, "unit": "mg/mmol"}, {"measurement": "ACR", "setting": "[4]; Patient C, 200 mg TID, Day 4", "value": 27, "unit": "mg/mmol"}, {"measurement": "ACR", "setting": "[4]; Patient C, 200 mg TID, Day 7/0 Hour", "value": 22, "unit": "mg/mmol"}, {"measurement": "ACR", "setting": "[4]; Patient C, 200 mg TID, Day 10", "value": 35, "unit": "mg/mmol"}, {"measurement": "ACR", "setting": "[4]; Patient C, 200 mg TID, Day 14", "value": 30, "unit": "mg/mmol"}, {"measurement": "ACR", "setting": "[4]; Patient C, 200 mg TID, Day 15 Taper", "value": 44, "unit": "mg/mmol"}, {"measurement": "ACR", "setting": "[4]; Patient C, 200 mg TID, Day 16 Taper", "value": 26, "unit": "mg/mmol"}, {"measurement": "ACR", "setting": "[4]; Patient C, 200 mg TID, Day 17 Taper", "value": 32, "unit": "mg/mmol"}, {"measurement": "ACR", "setting": "[4]; Patient C, 200 mg TID, Day 21 Taper", "value": 23, "unit": "mg/mmol"}, {"measurement": "ACR", "setting": "[4]; Patient C, 200 mg TID, Follow-Up Day 24", "value": 32, "unit": "mg/mmol"}, {"measurement": "ACR", "setting": "[4]; Patient C, 200 mg TID, Follow-Up Day 28", "value": 47, "unit": "mg/mmol"}, {"measurement": "ACR", "setting": "[4]; Patient C, 200 mg TID, Follow-Up Day 49", "value": 20, "unit": "mg/mmol"}, {"measurement": "ACR", "setting": "[4]; Patient C, 200 mg TID, Screen", "value": 44, "unit": "mg/mmol"}, {"measurement": "ACR", "setting": "[4]; Patient C, 200 mg TID, Screen 1", "value": 128, "unit": "mg/mmol"}, {"measurement": "ACR", "setting": "[4]; Patient D, 200 mg TID, Day 1/0 Hour", "value": 224, "unit": "mg/mmol"}, {"measurement": "ACR", "setting": "[4]; Patient D, 200 mg TID, Day 4", "value": 279, "unit": "mg/mmol"}, {"measurement": "ACR", "setting": "[4]; Patient D, 200 mg TID, Day 7/0 Hour", "value": 322, "unit": "mg/mmol"}, {"measurement": "ACR", "setting": "[4]; Patient D, 200 mg TID, Day 10", "value": 648, "unit": "mg/mmol"}, {"measurement": "ACR", "setting": "[4]; Patient D, 200 mg TID, Day 14", "value": 286, "unit": "mg/mmol"}, {"measurement": "ACR", "setting": "[4]; Patient D, 200 mg TID, Day 15 Taper", "value": 328, "unit": "mg/mmol"}]}]}
